Experimental data as given in PubChem BioAssay AID256 (DTP/NCI, 2004).
Toxic doses and inconclusive results are not listed. Rule for the calls: active = survival T/C of 150% or more; inactive = T/C below 125% in these data.

Tested on: CD2F1 mice, L1210 leukemia ip, survival T/C
Test: NCI In Vivo Anticancer Drug Screen. Data for tumor model L1210 Leukemia (intraperitoneal) in CD2F1 (CDF1) mice
Conditions: higher = longer survival
Method in brief: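 Compound-dosed mice with transplantable tumor versus matched vehicle controls; endpoint ratio T/C reported.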

[1] = endpoint: mean survival time, dose: 100.0 mg/kg/injection, schedule: Q01DX001 (ip), vehicle: saline with Tween-80
[2] = endpoint: mean survival time, dose: 100.0 mg/kg/injection, schedule: Q04DX003 (ip), vehicle: other
[3] = endpoint: mean survival time, dose: 200.0 mg/kg/injection, schedule: Q04DX003 (ip), vehicle: other
[4] = endpoint: mean survival time, dose: 100.0 mg/kg/injection, schedule: Q04DX003 (ip), vehicle: saline with Tween-80
[5] = endpoint: mean survival time, dose: 200.0 mg/kg/injection, schedule: Q04DX003 (ip), vehicle: saline with Tween-80
[6] = endpoint: mean survival time, dose: 400.0 mg/kg/injection, schedule: Q04DX003 (ip), vehicle: saline with Tween-80
[7] = endpoint: mean survival time, dose: 200.0 mg/kg/injection, schedule: Q01DX001 (ip), vehicle: saline with Tween-80
[8] = endpoint: mean survival time, dose: 400.0 mg/kg/injection, schedule: Q01DX001 (ip), vehicle: saline with Tween-80
[9] = endpoint: mean survival time, dose: 100.0 mg/kg/injection, schedule: Q01DX009 (ip), vehicle: saline with Tween-80
[10] = endpoint: mean survival time, dose: 200.0 mg/kg/injection, schedule: Q01DX009 (ip), vehicle: saline with Tween-80
[11] = endpoint: mean survival time, dose: 50.0 mg/kg/injection, schedule: Q01DX009 (ip), vehicle: saline with Tween-80
[12] = endpoint: mean survival time, dose: 400.0 mg/kg/injection, schedule: Q01DX009 (ip), vehicle: saline with Tween-80
[13] = endpoint: mean survival time, dose: 25.0 mg/kg/injection, schedule: Q04DX003 (ip), vehicle: saline with Tween-80
[14] = endpoint: mean survival time, dose: 50.0 mg/kg/injection, schedule: Q04DX003 (ip), vehicle: saline with Tween-80

Measured: T/C

NC(N)=NC(N)=Nc1ccc(-c2ccccc2)cc1
inactive: endpoint: mean survival time, dose: 25.0 mg/kg/injection, schedule: Q01DX001 (ip), vehicle: saline with Tween-80 100 % of control | endpoint: mean survival time, dose: 50.0 mg/kg/injection, schedule: Q01DX001 (ip), vehicle: saline with Tween-80 103 % of control | [1] 93 % of control

FC(F)(F)C1(C(F)(F)F)C/C(=N/Nc2ccccc2)CO1
inactive: [2] 101 % of control | [3] 101 % of control | endpoint: mean survival time, dose: 400.0 mg/kg/injection, schedule: Q04DX003 (ip), vehicle: other 101 % of control

O=C1CCCC1=P(c1ccccc1)(c1ccccc1)c1ccccc1
inactive: [2] 99 % of control | [3] 90 % of control

CC(NC(=O)C(CSCc1ccccc1)NC(=O)OCc1ccccc1)C(=O)OCc1ccccc1 (stereo unspecified)
inactive: [4] 96 % of control | [5] 98 % of control | [6] 93 % of control

CC(=O)OC1COC(n2nnc3c(-c4ccccc4)c(C)nn32)C(OC(C)=O)C1OC(C)=O (stereo unspecified)
inactive: endpoint: median survival time, dose: 12.5 mg/kg/injection, schedule: Q01DX005 (ip), vehicle: Klucel (hydroxypropylcellulose) (HPC) 112 % of control | endpoint: median survival time, dose: 25.0 mg/kg/injection, schedule: Q01DX005 (ip), vehicle: Klucel (hydroxypropylcellulose) (HPC) 104 % of control | endpoint: median survival time, dose: 50.0 mg/kg/injection, schedule: Q01DX005 (ip), vehicle: Klucel (hydroxypropylcellulose) (HPC) 97 % of control | endpoint: median survival time, dose: 100.0 mg/kg/injection, schedule: Q01DX005 (ip), vehicle: Klucel (hydroxypropylcellulose) (HPC) 100 % of control | endpoint: median survival time, dose: 200.0 mg/kg/injection, schedule: Q01DX005 (ip), vehicle: Klucel (hydroxypropylcellulose) (HPC) 95 % of control

Nc1cccc(S(=O)(=O)NNc2cc(Cl)ccc2Cl)c1
inactive: [4] 102 % of control | [5] 96 % of control | [6] 95 % of control

O=C1C2(Cl)C(Cl)=C(Cl)C1(Cl)C1(Cl)C(Cl)=C(Cl)C(=O)C21Cl (stereo unspecified)
inactive: endpoint: mean survival time, dose: 10.0 mg/kg/injection, schedule: Q01DX009 (ip), vehicle: saline with Tween-80 94 % of control | endpoint: mean survival time, dose: 20.0 mg/kg/injection, schedule: Q01DX009 (ip), vehicle: saline with Tween-80 94 % of control | endpoint: mean survival time, dose: 40.0 mg/kg/injection, schedule: Q01DX009 (ip), vehicle: saline with Tween-80 92 % of control

CC(=O)C1C(c2ccccc2)=C(c2ccccc2)c2ccccc21 (stereo unspecified)
inactive: [1] 88 % of control | [7] 92 % of control | [8] 92 % of control

Cc1cccc[n+]1CCC(N)=O
inactive: endpoint: mean survival time, dose: 6.25 mg/kg/injection, schedule: Q04DX003 (ip), vehicle: saline 96 % of control | endpoint: mean survival time, dose: 12.5 mg/kg/injection, schedule: Q04DX003 (ip), vehicle: saline 88 % of control | endpoint: mean survival time, dose: 25.0 mg/kg/injection, schedule: Q04DX003 (ip), vehicle: saline 91 % of control

Oc1ccc(I)cc1
inactive: endpoint: mean survival time, dose: 100.0 mg/kg/injection, schedule: Q01DX009 (ip), vehicle: other 96 % of control | endpoint: mean survival time, dose: 200.0 mg/kg/injection, schedule: Q01DX009 (ip), vehicle: other 103 % of control | endpoint: mean survival time, dose: 400.0 mg/kg/injection, schedule: Q01DX009 (ip), vehicle: other 111 % of control

O=Cc1cc(Cl)ccc1O
inactive: [9] 108 % of control | [4] 95 % of control | [10] 102 % of control | [5] 95 % of control

CCOC(=O)C1(C(=O)OCC)C2CC=CCC21 (stereo unspecified)
inactive: endpoint: mean survival time, dose: 50.0 mg/kg/injection, schedule: Q01DX009 (ip), vehicle: acetone 100 % of control | endpoint: mean survival time, dose: 100.0 mg/kg/injection, schedule: Q01DX009 (ip), vehicle: acetone 92 % of control | endpoint: mean survival time, dose: 200.0 mg/kg/injection, schedule: Q01DX009 (ip), vehicle: acetone 97 % of control

CCCC/C=C/C1CCCCO1 (stereo unspecified)
inactive: [11] 94 % of control | [9] 97 % of control | [10] 105 % of control

COC1OC2COc3ccccc3OC2C(NC(=O)Oc2ccccc2)C1O (stereo unspecified)
inactive: [1] 94 % of control | [7] 94 % of control | [8] 91 % of control

O=C1NC(=O)C(C2CC2)(C2CC2)N1
inactive: [9] 95 % of control | [10] 94 % of control | [12] 96 % of control

CC(O)C1NC(=S)N(c2ccccc2)C1=O (stereo unspecified)
inactive: endpoint: mean survival time, dose: 75.0 mg/kg/injection, schedule: Q01DX001 (ip), vehicle: saline 100 % of control | endpoint: mean survival time, dose: 150.0 mg/kg/injection, schedule: Q01DX001 (ip), vehicle: saline 103 % of control | endpoint: mean survival time, dose: 300.0 mg/kg/injection, schedule: Q01DX001 (ip), vehicle: saline 103 % of control

c1ccc([P+](Cc2ccc3ccccc3n2)(c2ccccc2)c2ccccc2)cc1
inactive: endpoint: mean survival time, dose: 6.25 mg/kg/injection, schedule: Q01DX009 (ip), vehicle: saline 108 % of control | endpoint: mean survival time, dose: 12.5 mg/kg/injection, schedule: Q01DX009 (ip), vehicle: saline 112 % of control

CC(O)CN1CCN(CC(C)O)CC1.[Cl][Pt+2][Cl] (stereo unspecified)
inactive: endpoint: mean survival time, dose: 3.13 mg/kg/injection, schedule: Q04DX003 (ip), vehicle: saline with Tween-80 105 % of control | endpoint: mean survival time, dose: 6.25 mg/kg/injection, schedule: Q04DX003 (ip), vehicle: saline with Tween-80 102 % of control | endpoint: mean survival time, dose: 12.5 mg/kg/injection, schedule: Q04DX003 (ip), vehicle: saline with Tween-80 105 % of control | [13] 102 % of control | [14] 97 % of control

C#CCOCCC(C(C)=O)C(=O)OCC (stereo unspecified)
inactive: endpoint: mean survival time, dose: 100.0 mg/kg/injection, schedule: Q01DX001 (ip), vehicle: saline 104 % of control | endpoint: mean survival time, dose: 200.0 mg/kg/injection, schedule: Q01DX001 (ip), vehicle: saline 100 % of control

COC(CO)(OC)c1ccccc1
inactive: [4] 102 % of control | [5] 106 % of control | [6] 93 % of control

CCOC(=O)c1cc(C)[nH]c(=O)c1C#N
inactive: endpoint: mean survival time, dose: 25.0 mg/kg/injection, schedule: Q01DX009 (ip), vehicle: saline with Tween-80 93 % of control | [13] 102 % of control | [11] 96 % of control | [14] 102 % of control | [9] 93 % of control | [4] 98 % of control

CCCC/C=C\C(=O)OC
inactive: [11] 101 % of control | [9] 104 % of control | [10] 101 % of control

COc1ccccc1NC(=O)Oc1ccc(Cl)c(C)c1
inactive: endpoint: mean survival time, dose: 100.0 mg/kg/injection, schedule: Q04DX002 (ip), vehicle: saline with Tween-80 103 % of control | endpoint: mean survival time, dose: 200.0 mg/kg/injection, schedule: Q04DX002 (ip), vehicle: saline with Tween-80 103 % of control | endpoint: mean survival time, dose: 400.0 mg/kg/injection, schedule: Q04DX002 (ip), vehicle: saline with Tween-80 96 % of control

Cc1cccc(C)c1N=C(c1ccccc1)N(O)c1ccccc1
inactive: endpoint: mean survival time, dose: 1.88 mg/kg/injection, schedule: Q01DX009 (ip), vehicle: saline with Tween-80 101 % of control | endpoint: mean survival time, dose: 1.88 mg/kg/injection, schedule: Q04DX003 (ip), vehicle: saline 93 % of control | endpoint: mean survival time, dose: 3.75 mg/kg/injection, schedule: Q01DX009 (ip), vehicle: saline with Tween-80 95 % of control | endpoint: mean survival time, dose: 3.75 mg/kg/injection, schedule: Q04DX003 (ip), vehicle: saline 96 % of control | endpoint: mean survival time, dose: 7.5 mg/kg/injection, schedule: Q01DX001 (ip), vehicle: saline 103 % of control | endpoint: mean survival time, dose: 7.5 mg/kg/injection, schedule: Q01DX009 (ip), vehicle: saline with Tween-80 98 % of control | endpoint: mean survival time, dose: 7.5 mg/kg/injection, schedule: Q04DX003 (ip), vehicle: saline 98 % of control

O=[N+]([O-])c1ccc(Sc2ccc(Cl)cc2)cc1
inactive: endpoint: mean survival time, dose: 100.0 mg/kg/injection, schedule: Q01DX001 (ip), vehicle: other 95 % of control | [9] 98 % of control | [4] 104 % of control | endpoint: mean survival time, dose: 200.0 mg/kg/injection, schedule: Q01DX001 (ip), vehicle: other 102 % of control | [10] 98 % of control | [5] 95 % of control | endpoint: mean survival time, dose: 400.0 mg/kg/injection, schedule: Q01DX001 (ip), vehicle: other 107 % of control | [6] 103 % of control

CC(C)C(=O)OCCOC(=O)C(C)C
inactive: endpoint: mean survival time, dose: 100.0 mg/kg/injection, schedule: Q04DX003 (ip), vehicle: saline 100 % of control | endpoint: mean survival time, dose: 200.0 mg/kg/injection, schedule: Q04DX003 (ip), vehicle: saline 97 % of control | endpoint: mean survival time, dose: 400.0 mg/kg/injection, schedule: Q04DX003 (ip), vehicle: saline 96 % of control

COB1OB(OC)OB(OC)O1
inactive: [11] 90 % of control | [9] 93 % of control | [10] 93 % of control | [12] 93 % of control
